Source: patent EP1215499A1 (priority 1999, dated 2001)
*1 amine or outer side, *2 acyl side, *3 side chain or, on linkers, in order; H or OH if unused. Where a SMILES comes first, the peptide text is derived from it. [ ]: non-standard residue; d: D form. The star is where a group is joined. Sta = CC(C)C[C@H](N)[C@@H](O)CC(=O)O; AMC = Cc1cc(=O)oc2cc(N*)ccc12; Suc = O=C(CCC(=O)[*:2])[*:1]; Isovaleryl = CC(C)CC(=O)*; Boc = CC(C)(C)OC(=O)*

What was measured:
Type in all cases: biochemical
miniplasmin [1] = target: T1, miniplasmin (Homo sapiens, UniProt P00747); experiment: biochemical
T1 construct: 38kDa (Kringle 5 + L chain); the 12kDa protein of human miniplasmin includes a kringle 5 that begins with V^441; host or cells: no expression host
T1 sequence (P00747 481-560): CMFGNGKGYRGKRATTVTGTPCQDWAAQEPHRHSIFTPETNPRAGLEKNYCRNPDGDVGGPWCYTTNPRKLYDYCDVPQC
T1 sequence (P00747 581-810): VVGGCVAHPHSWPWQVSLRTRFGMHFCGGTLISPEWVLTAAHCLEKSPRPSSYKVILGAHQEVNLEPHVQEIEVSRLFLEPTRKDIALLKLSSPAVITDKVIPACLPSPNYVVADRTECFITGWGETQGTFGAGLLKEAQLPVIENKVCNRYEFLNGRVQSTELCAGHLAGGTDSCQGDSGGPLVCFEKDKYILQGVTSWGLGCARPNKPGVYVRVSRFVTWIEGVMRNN

miniplasmin [2] = target: T1, miniplasmin; experiment: Substrate specificity of human miniplasmin (cleavage of fluorescent MCA synthetic substrates); settings: for Activity (mU/ml): cleavage of the named substrate by human miniplasmin; for cleaving activity of miniplasmin toward the substrate: result in words
Experimental: 2. […] Miniplasmin cut the bond after Arg.
Nor did it toward Bz-Arg-MCA, a synthetic substrate for cathepsin B, which is one of lysosomal enzymes.
The activity of miniplasmin was quantified by defining the enzyme activity that can degrade […] of the synthetic substrate Boc-Glu-Ala-Arg-MCA in 1 minute as 1 unit.

miniplasmin [3] = target: T1, miniplasmin; experiment: as above; settings: Boc-Gln-Ala-Arg-MCA = 100%
miniplasmin [4] = target: T1, miniplasmin

## CC(C)C[C@H](NC(=O)N[C@H](C(=O)N[C@@H](CCC(N)=O)C(=O)N[C@@H](C)C=O)[C@@H]1CCNC(=N)N1)C(=O)O [Elastatinal]
Miniplasmin [1]; read-out: Relative activity
  activity at 10 µM: 69.2%

## CC(C)CC(NC(=O)C1OC1C(=O)O)C(=O)NCCCCNC(=N)N (centres unmarked) [E-64]
Miniplasmin [1]; read-out: Relative activity
  activity at 10 µM: 61.5%

## Cc1cc(=O)oc2cc(NC(=O)[C@H](CCCNC(=N)N)NC(=O)[C@@H]3CCCN3C(=O)[C@@H](NC(=O)OC(C)(C)C)C(C)C)ccc12 [Boc-Val-Pro-Arg-MCA] (Boc-Val-Pro-Arg-{AMC})
Miniplasmin [2]
  Activity (mU/ml): 5.0 mU/ml

## Cc1cc(=O)oc2cc(NC(=O)[C@H](Cc3ccccc3)NC(=O)[C@@H]3CCCN3C(=O)[C@H](C)NC(=O)[C@H](C)NC(=O)CCC(=O)O)ccc12 [Suc-Ala-Ala-Pro-Phe-MCA] (Suc-AAPF-{AMC})
Miniplasmin [2]
  Activity (mU/ml): 0.0 mU/ml

## Cc1cc(=O)oc2cc(NC(=O)[C@H](CCCNC(=N)N)NC(=O)CNC(=O)[C@H](CCC(N)=O)NC(=O)OC(C)(C)C)ccc12 [Boc-Gln-Gly-Arg-MCA] (Boc-Gln-Gly-Arg-{AMC})
Miniplasmin [2]
  Activity (mU/ml): 8.1 mU/ml

## Cc1cc(=O)oc2cc(NC(=O)[C@H](CCCCN)NC(=O)[C@H](CCCCN)NC(=O)[C@H](CCC(=O)O)NC(=O)OC(C)(C)C)ccc12 [Boc-Glu-Lys-Lys-MCA] (Boc-Glu-Lys-Lys-{AMC})
Miniplasmin [2]
  Activity (mU/ml): 50.3 mU/ml
  cleaving activity of miniplasmin toward the substrate: highest cleaving activity

## CC(C)CC(=O)N[C@H](C(=O)N[C@H](C(=O)N[C@@H](CC(C)C)[C@@H](O)CC(=O)N[C@@H](C)C(=O)N[C@@H](CC(C)C)[C@@H](O)CC(=O)O)C(C)C)C(C)C [Pepstatin A] (Isovaleryl-VV[Sta]A[Sta]-OH)
Miniplasmin [1]; read-out: Relative activity
  activity at 10 µM: 64%

## Cc1cc(=O)oc2cc(NC(=O)[C@H](Cc3ccc(O)cc3)NC(=O)[C@@H](NC(=O)[C@H](CC(C)C)NC(=O)[C@H](CC(C)C)NC(=O)CCC(=O)O)C(C)C)ccc12 [Suc-Leu-Leu-Val-Tyr-MCA] (Suc-LLVY-{AMC})
Miniplasmin [2]
  Activity (mU/ml): 0.0 mU/ml

## Cc1cc(=O)oc2cc(NC(=O)[C@H](CCCNC(=N)N)NC(=O)[C@H](C)NC(=O)[C@H](CCC(N)=O)NC(=O)OC(C)(C)C)ccc12 [Boc-Gln-Ala-Arg-MCA] (Boc-Gln-Ala-Arg-{AMC})
Miniplasmin [2]
  Activity (mU/ml): 32.3 mU/ml

## Cc1cc(=O)oc2cc(NC(=O)[C@H](CCCNC(=N)N)NC(=O)[C@H](CCCNC(=N)N)NC(=O)[C@H](CCC(N)=O)NC(=O)OC(C)(C)C)ccc12 [Boc-Gln-Arg-Arg-MCA] (Boc-Gln-Arg-Arg-{AMC})
Miniplasmin [2]
  Activity (mU/ml): 16.1 mU/ml

## CC(=O)N[C@@H](CC(C)C)C(=O)N[C@@H](CC(C)C)C(=O)N[C@H](C=O)CCCNC(=N)N [Leupeptin]
Miniplasmin [1]
  inhibition mark (circle / double circle): ⓞ Leupeptin
Miniplasmin [1]; read-out: Relative activity
  activity at 10 µM: 18.6%

## Cc1cc(=O)oc2cc(NC(=O)[C@H](CCCNC(=N)N)NC(=O)[C@H](CO)NC(=O)[C@H](Cc3ccccc3)NC(=O)OC(C)(C)C)ccc12 [Boc-Phe-Ser-Arg-MCA] (Boc-Phe-Ser-Arg-{AMC})
Miniplasmin [2]
  Activity (mU/ml): 5.0 mU/ml

## Boc-Ile-Gln-Gly-Arg-MCA (Boc-IQGR-{AMC})
Miniplasmin [2]
  Activity (mU/ml): 1.6 mU/ml
  cleaving activity of miniplasmin toward the substrate: substantially no cleaving activity
Miniplasmin [3]
  % (Activity as a percentage of that with Boc-Gln-Ala-Arg-MCA): 4.8%

## CC(C)C[C@H](NC(=O)[C@@H](NC(=O)N[C@@H](Cc1ccccc1)C(=O)O)C1CCN=C(N)N1)C(=O)N[C@H](C=O)Cc1ccccc1 (some centres unmarked) [Cymostatin]
Miniplasmin [1]; read-out: Relative activity
  activity at 10 µM: 100%

## Cc1cc(=O)oc2cc(NC(=O)[C@H](CCCNC(=N)N)NC(=O)c3ccccc3)ccc12 [Bz-Arg-MCA]
Miniplasmin [2]
  Activity (mU/ml): 0.0 mU/ml
  cleaving activity of miniplasmin toward the substrate: substantially no cleaving activity

## N=C(N)c1ccccc1 [Benzamidine]
Miniplasmin [1]
  inhibition mark (circle / double circle): ○ Benzamidine
Miniplasmin [1]; read-out: Relative activity
  activity at 10 µM: 67.6%
  activity at 1000 µM: 22.9%
Miniplasmin [4]
  transformation of F0 into F1 and F2: substantially prevented

## O=S(=O)(F)Cc1ccccc1 [Phenylmethylsulfonyl fluoride]
Miniplasmin [1]
  inhibition mark (circle / double circle): ○ Phenylmethylsulfonyl fluoride
Miniplasmin [1]; 1000 µM
  Relative activity: 95.1%
Miniplasmin [1]; 10000 µM
  Relative activity: 29.5%

## Cc1cc(=O)oc2cc(NC(=O)[C@H](CCCNC(=N)N)NC(=O)[C@H](CCCCN)NC(=O)CNC(=O)OC(C)(C)C)ccc12 [Boc-Gly-Lys-Arg-MCA] (Boc-Gly-Lys-Arg-{AMC})
Miniplasmin [2]
  Activity (mU/ml): 3.1 mU/ml

## Cc1cc(=O)oc2cc(NC(=O)[C@H](CCCNC(=N)N)NC(=O)[C@@H](NC(=O)[C@H](CC(C)C)NC(=O)OC(C)(C)C)[C@@H](C)O)ccc12 [Boc-Leu-Thr-Arg-MCA] (Boc-Leu-Thr-Arg-{AMC})
Miniplasmin [2]
  Activity (mU/ml): 3.4 mU/ml

## CC(C)C[C@H](NP(=O)(O)O[C@@H]1O[C@@H](C)[C@H](O)[C@@H](O)[C@H]1O)C(=O)N[C@@H](Cc1c[nH]c2ccccc12)C(=O)O [Phosphoramidon]
Miniplasmin [1]; read-out: Relative activity
  activity at 10 µM: 100%

## Cc1cc(=O)oc2cc(NC(=O)[C@H](CCCNC(=N)N)NC(=O)[C@H](Cc3ccccc3)NC(=O)[C@@H]3CCCN3)ccc12 [Pro-Phe-Arg-MCA] (H-Pro-Phe-Arg-{AMC})
Miniplasmin [2]
  Activity (mU/ml): 5.0 mU/ml

## Cc1cc(=O)oc2cc(NC(=O)[C@H](CCCCN)NC(=O)[C@H](CC(C)C)NC(=O)[C@@H](NC(=O)OC(C)(C)C)C(C)C)ccc12 [Boc-Val-Leu-Lys-MCA] (Boc-Val-Leu-Lys-{AMC})
Miniplasmin [2]
  Activity (mU/ml): 17.7 mU/ml
Miniplasmin [3]
  % (Activity as a percentage of that with Boc-Gln-Ala-Arg-MCA): 54.8%

## Cc1cc(=O)oc2cc(NC(=O)[C@H](CCCNC(=N)N)NC(=O)[C@H](CCCNC(=N)N)NC(=O)[C@H](CC(C)C)NC(=O)OC(C)(C)C)ccc12 [Boc-Leu-Arg-Arg-MCA] (Boc-Leu-Arg-Arg-{AMC})
Miniplasmin [2]
  Activity (mU/ml): 3.1 mU/ml

## Cc1cc(=O)oc2cc(NC(=O)[C@H](CCCNC(=N)N)NC(=O)[C@@H]3CCCN3C(=O)CNC(=O)[C@H](C)NC(=O)OC(C)(C)C)ccc12 [Boc-Ala-Gly-Pro-Arg-MCA] (Boc-AGPR-{AMC})
Miniplasmin [2]
  Activity (mU/ml): 2.5 mU/ml
